Test systems include A549; ACHN; CAKI-1; HCC 2998; HCT-116; HCT-15; NCI-H226; NCI-H23; NCI-H522; OVCAR-5; OVCAR-8; SK-MEL-5; SNB-19; SNB-75; SW-620; UACC-62; DU-145; MCF7.
Experiment in all cases: NCI tumour cell line growth inhibition, 48 h

Each structure is given as a SMILES string.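 How tested: cells in 96-well plates exposed to compound for 48 hours at five concentrations. Abbreviation: GI50, concentration required for 50% inhibition of growth.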 Activity calls are given as the source filed them. Rule as the data show it: active = GI50 up to about 1.1 µM and inactive = higher. Where only a bound is given, the exact number is not on record here.

`COc1ccc(-c2csc(=[N+]3CCCCC3)s2)cc1`: the GI50 with A549 was 1.94 µM (inactive); with ACHN, 9.44 µM (inactive); in the assay on CAKI-1 it was 2.36 µM (inactive); in the assay with HCC 2998, 3.85 µM (inactive); with HCT-116 it was 4.42 µM (inactive); in the assay with HCT-15, 47.3 µM. Moreover, the GI50 with NCI-H226 is 2.92 µM (inactive); in the assay with NCI-H23 it was 1.63 µM (inactive); in the assay with NCI-H522, 1.72 µM (inactive); in the assay with OVCAR-5, 8.83 µM (inactive); with OVCAR-8, 3.05 µM (inactive); with SK-MEL-5, 1.87 µM (inactive). In addition, the GI50 is 1.67 µM (inactive) in the assay with SNB-19, 1.23 µM (inactive) in the assay with SNB-75, 2.88 µM (inactive) in the assay on SW-620 and 7.78 µM (inactive) in the assay on UACC-62.
In the case of `CC1(C)CCCC2(C)[C@@H]1CC[C@@]13CC(=O)[C@@](C)(CC[C@@H]21)C3` (stereo not given in full), the GI50 in the assay on A549 is 85.1 µM (inactive); in the assay with ACHN, 87.3 µM (inactive); with CAKI-1, > 100 µM (inactive); in the assay with HCC 2998 it was > 100 µM (inactive); with HCT-116, 46.1 µM (inactive); in the assay with HCT-15 it was 97.5 µM. Further, the GI50 is 83.4 µM (inactive) with NCI-H226; 59.7 µM (inactive) in the assay on NCI-H23; 20.9 µM (inactive) in the assay with NCI-H522; > 100 µM (inactive) with OVCAR-5; 85.7 µM (inactive) with OVCAR-8; 52.5 µM (inactive) in the assay on SK-MEL-5. For the same compound, the GI50 in the assay with SNB-19, with SNB-75, in the assay on SW-620 and in the assay on UACC-62 was > 100 µM (inactive) throughout.
Turning to `Cc1cccc(O)c(=O)c1`, the GI50 was 24.9 µM (inactive) in the assay with A549; 31.7 µM (inactive) in the assay on ACHN; 63.1 µM (inactive) with CAKI-1; 44.4 µM (inactive) in the assay on HCC 2998; 11.9 µM (inactive) in the assay on HCT-116; 8.3 µM with HCT-15. Further, the GI50 was 3.3 µM (inactive) in the assay with NCI-H226; 6.79 µM (inactive) in the assay on NCI-H522; 47.6 µM (inactive) in the assay on OVCAR-5; 19.1 µM (inactive) in the assay with OVCAR-8; 28.1 µM (inactive) with SK-MEL-5; 92.9 µM (inactive) in the assay with SNB-19. Further, the values for the GI50 with SNB-75, in the assay on SW-620 and in the assay with UACC-62 were 83.6 µM (inactive), 16.4 µM (inactive) and 11.4 µM (inactive), respectively.
With `O=c1c2cc(Br)cc(Br)c2nc(CCCl)n1-c1ccc(O)c([N+](=O)[O-])c1`, the GI50 with A549 is 15.5 µM (inactive); in the assay with ACHN, 19.7 µM (inactive); with HCC 2998, 18.5 µM (inactive); in the assay on HCT-116, 14.7 µM (inactive); in the assay with HCT-15 it was 19 µM; in the assay on NCI-H226 it was 19.6 µM (inactive). Moreover, the GI50 was 21.7 µM (inactive) with NCI-H23; 9.66 µM (inactive) with NCI-H522; 18.9 µM (inactive) in the assay on OVCAR-5; 22.9 µM (inactive) in the assay on OVCAR-8; 20.1 µM (inactive) in the assay with SK-MEL-5; 20.1 µM (inactive) in the assay with SNB-19. Further, the GI50 is 19.8 µM (inactive) in the assay with SNB-75, 19.4 µM (inactive) with SW-620 and 22.5 µM (inactive) in the assay with UACC-62.
With `CS(=O)(=O)NNS(=O)(=O)c1ccc(Br)cc1`, the GI50 is > 100 µM (inactive) in the assay on A549; > 100 µM (inactive) with ACHN; > 100 µM (inactive) in the assay on CAKI-1; > 100 µM (inactive) in the assay on HCC 2998; > 100 µM (inactive) with HCT-116; over 100 µM with HCT-15. In addition, the GI50 with NCI-H226, in the assay on NCI-H23, in the assay on NCI-H522, in the assay on OVCAR-5, in the assay on OVCAR-8 and with SK-MEL-5 was > 100 µM (inactive) throughout. Also, the GI50 in the assay on SNB-19 was > 100 µM (inactive); with SNB-75, 87.7 µM (inactive); in the assay with SW-620, > 100 µM (inactive); in the assay with UACC-62, > 100 µM (inactive).
For `CC(=O)OC1(C)C(=O)OC1(C)C(C)=O` (stereo not given), the GI50 was > 100 µM (inactive) with A549; > 100 µM (inactive) with ACHN; > 100 µM (inactive) in the assay with CAKI-1; > 100 µM (inactive) in the assay on HCC 2998; > 100 µM (inactive) in the assay with HCT-116; over 100 µM in the assay with HCT-15. Moreover, the GI50 in the assay on NCI-H226, in the assay with NCI-H23, in the assay with NCI-H522, in the assay with OVCAR-5, with OVCAR-8 and in the assay on SK-MEL-5 was > 100 µM (inactive) throughout. Besides, the GI50 in the assay on SNB-19, with SNB-75, in the assay on SW-620 and in the assay with UACC-62 was > 100 µM (inactive) in each case.
`CSC(C1c2ccccc2N(C)C2=NC(=O)N(C)C(=O)C21Cl)S(=O)(=O)c1ccc(C)cc1` (stereo not given): the GI50 in the assay with A549 was > 100 µM (inactive); with ACHN, 50.6 µM (inactive); in the assay with CAKI-1 it was 24.9 µM (inactive); with HCC 2998, > 100 µM (inactive); in the assay with HCT-116 it was 31.8 µM (inactive); with HCT-15, 40.9 µM. For the same compound, the GI50 with NCI-H226 was > 100 µM (inactive); in the assay on NCI-H23 it was 27 µM (inactive); in the assay on NCI-H522, 15.7 µM (inactive); in the assay with OVCAR-5, > 100 µM (inactive); with OVCAR-8, 21 µM (inactive); with SK-MEL-5 it was 57.4 µM (inactive). The GI50 with SNB-19 is 64.3 µM (inactive); in the assay on SNB-75, 24 µM (inactive); in the assay on SW-620, 26.6 µM (inactive); in the assay with UACC-62, 91.8 µM (inactive).
For the compound `O=P1(c2ccccc2)CCCCC1`, the GI50 in the assay with A549 is > 100 µM (inactive); in the assay on ACHN, > 100 µM (inactive); in the assay with HCC 2998, > 100 µM (inactive); in the assay with HCT-116, > 100 µM (inactive); in the assay on HCT-15, over 100 µM; in the assay on NCI-H226, > 100 µM (inactive). For the same compound, the GI50 in the assay with NCI-H23 was > 100 µM (inactive); in the assay with NCI-H522, > 10 µM (inactive); in the assay with OVCAR-5 it was > 100 µM (inactive); with OVCAR-8, > 100 µM (inactive); with SK-MEL-5, > 100 µM (inactive); in the assay with SNB-19, > 100 µM (inactive). The values for the GI50 in the assay with SNB-75, in the assay with SW-620 and in the assay on UACC-62 were > 100 µM (inactive), > 10 µM (inactive) and > 100 µM (inactive), respectively.
Regarding `COc1cc(C2c3cc4c(cc3[C@@H](Nc3ccc(N(C)C)cc3)[C@H]3COC(=O)C23)OCO4)cc(OC)c1O` (stereo not given in full), the GI50 in the assay on A549 is 0.0871 µM (active); in the assay on ACHN it was 0.049 µM (active); in the assay on CAKI-1 it was 0.141 µM (active); in the assay on HCC 2998, 1.27 µM (inactive); with HCT-116, 0.582 µM (active); in the assay with HCT-15, 0.838 µM. Moreover, the GI50 with NCI-H226 was 0.0545 µM (active); in the assay with NCI-H23 it was 0.189 µM (active); with NCI-H522 it was 0.873 µM (active); with OVCAR-5 it was 0.818 µM (active); in the assay on OVCAR-8 it was 0.587 µM (active); in the assay on SK-MEL-5 it was 0.873 µM (active). Moreover, the GI50 with SNB-19 was 0.273 µM (active); with SNB-75, 0.324 µM (active); with SW-620, 0.807 µM (active); in the assay with UACC-62, 0.232 µM (active).
Regarding `CCOC(=O)c1ccc(-n2c(SCC)nc3sc(C)c(C)c3c2=O)cc1`, the GI50 is > 100 µM (inactive) in the assay with A549; > 100 µM (inactive) with ACHN; > 100 µM (inactive) in the assay with CAKI-1; > 100 µM (inactive) in the assay on HCC 2998; > 100 µM (inactive) with HCT-116; over 100 µM in the assay on HCT-15. Besides, the GI50 was > 100 µM (inactive) in the assay on NCI-H226; > 100 µM (inactive) with NCI-H23; > 100 µM (inactive) with NCI-H522; > 100 µM (inactive) in the assay on OVCAR-5; 68.7 µM (inactive) in the assay on OVCAR-8; > 100 µM (inactive) in the assay with SK-MEL-5. The GI50 in the assay with SNB-19 was > 100 µM (inactive); in the assay with SNB-75, 36.7 µM (inactive); in the assay on SW-620, > 100 µM (inactive); in the assay on UACC-62 it was > 100 µM (inactive).
On to `COC(=O)CCC(=O)C(CC(=O)OC)C(=O)CCC(=O)NCCc1ccccc1` (stereo not given), for which the GI50 in the assay with A549 is > 100 µM (inactive); with ACHN, > 100 µM (inactive); in the assay with CAKI-1, > 100 µM (inactive); with HCC 2998, > 100 µM (inactive); with HCT-116, > 100 µM (inactive); in the assay with HCT-15 it was over 100 µM. Further, the GI50 in the assay with NCI-H226, with NCI-H23, in the assay on NCI-H522, with OVCAR-5, with OVCAR-8 and in the assay with SK-MEL-5 was > 100 µM (inactive) in each case. In addition, the GI50 in the assay with SNB-19, in the assay on SNB-75, in the assay with SW-620 and in the assay on UACC-62 was > 100 µM (inactive) throughout.
With `CCn1c(=O)nc2n(-c3ccc(SC)cc3)c3ccccc3nc-2c1=O`, the GI50 was 29.1 µM (inactive) with A549; 1.87 µM (inactive) in the assay on ACHN; 32.9 µM (inactive) in the assay with CAKI-1; 29 µM (inactive) in the assay on HCC 2998; over 100 µM with HCT-15; > 100 µM (inactive) with NCI-H226. For the same compound, the GI50 was > 100 µM (inactive) with NCI-H23; > 100 µM (inactive) in the assay on NCI-H522; > 100 µM (inactive) with OVCAR-5; > 100 µM (inactive) with OVCAR-8; 9.42 µM (inactive) in the assay on SK-MEL-5; > 100 µM (inactive) in the assay on SNB-19. Besides, the GI50 is 76 µM (inactive) in the assay on SNB-75, 17.7 µM (inactive) in the assay with SW-620 and 50.9 µM (inactive) with UACC-62.
Turning to `CC(C)n1c(=O)[nH]n(-c2ccccc2)c1=O`, the GI50 with A549 was > 100 µM (inactive); in the assay on ACHN, > 100 µM (inactive); with CAKI-1, > 100 µM (inactive); in the assay on DU-145, > 100 µM (inactive); in the assay on HCT-116 it was > 100 µM (inactive); in the assay on HCT-15 it was over 100 µM. Also, the GI50 with MCF7, in the assay on NCI-H226, with NCI-H23, with NCI-H522, in the assay on OVCAR-5 and in the assay with OVCAR-8 was > 100 µM (inactive) in each case. Further, the GI50 in the assay on SK-MEL-5, in the assay on SNB-19, in the assay on SNB-75, in the assay with SW-620 and in the assay on UACC-62 was > 100 µM (inactive) throughout.

The values are drawn from ChEMBL document CHEMBL1201862, “PubChem BioAssay data set” (2004).
